# The source made the active and inactive calls. No cut-off for these calls is given here.
# Experiments:
# [1] = biological target: T1, Dihydroorotate dehydrogenase (quinone), mitochondrial (Plasmodium falciparum (isolate 3D7)) (UniProt Q08210); experiment: Inhibition of Plasmodium falciparum DHODH at 100 uM measured over 60 secs by DCIP dye based colorimetric assay relative to control; details: time > 60.0 sec
# T1 sequence (whole entry): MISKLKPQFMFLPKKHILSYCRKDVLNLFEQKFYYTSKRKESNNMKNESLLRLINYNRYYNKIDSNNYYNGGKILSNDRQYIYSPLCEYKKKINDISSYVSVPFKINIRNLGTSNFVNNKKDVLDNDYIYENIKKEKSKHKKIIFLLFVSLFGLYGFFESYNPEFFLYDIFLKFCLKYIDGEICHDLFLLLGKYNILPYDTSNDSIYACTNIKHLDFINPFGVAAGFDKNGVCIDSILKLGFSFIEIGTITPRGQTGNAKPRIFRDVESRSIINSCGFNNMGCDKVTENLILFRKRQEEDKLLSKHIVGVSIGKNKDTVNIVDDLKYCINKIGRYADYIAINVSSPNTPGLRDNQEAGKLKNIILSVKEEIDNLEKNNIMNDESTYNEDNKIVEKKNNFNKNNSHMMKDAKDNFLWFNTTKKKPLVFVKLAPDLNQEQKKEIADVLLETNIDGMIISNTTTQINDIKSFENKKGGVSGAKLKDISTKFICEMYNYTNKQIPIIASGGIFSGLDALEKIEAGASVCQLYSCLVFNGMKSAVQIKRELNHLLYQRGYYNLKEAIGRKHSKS
# [2] = biological target: T1, Dihydroorotate dehydrogenase (quinone), mitochondrial (Plasmodium falciparum (isolate 3D7)); experiment: Inhibition of Plasmodium falciparum DHODH assessed as residual activity at 100 uM measured over 60 secs by DCIP dye based colorimetric assay relative to control; details: time > 60.0 sec
# Plasmodium falciparum [3] = experiment: Antiplasmodial activity against sorbitol-synchronized ring stage chloroquine sensitive Plasmodium falciparum 3D7 infected in erythrocytes measured after 48 hrs by SYBR green dye based fluorescence analysis; format: functional, organism-based; details: 3D7, Erythrocyte
# Plasmodium falciparum [4] = experiment: Antiplasmodial activity against Plasmodium falciparum infected in erythrocytes assessed as induction of parasite death by measuring irreversible chromatin condensation with appearance of pyknotic nuclei at 300 nM measured after 24 hrs; format: functional, organism-based; details: Erythrocyte
# [5] = Ratio of IC50 for Plasmodium falciparum infected in erythrocytes measured after 24 hrs by SYBR green dye based fluorescence assay to IC50 for Plasmodium falciparum infected in erythrocytes measured after 72 hrs by SYBR green dye based fluorescence assay; format: functional, Erythrocyte
# Plasmodium berghei = experiment: Antiplasmodial activity against GFP-expressing Plasmodium berghei HSP70 infected in CD-1 mouse assessed as inhibition of ookinete formation at 10 uM measured after 22 hrs by giemsa staining based microscopic analysis; format: functional; details: read-out: INH
# [6] = Selectivity index, ratio of CC50 for human HepG2 cells to IC50 for antiplasmodial activity against sorbitol-synchronized ring stage chloroquine sensitive Plasmodium falciparum 3D7 infected in erythrocytes; format: toxicity, cell-based; details: Plasmodium falciparum 3D7 in erythrocytes, read-out: Ratio CC50/IC50
# [7] = Cytotoxicity against human HepG2 cells assessed as reduction in cell viability incubated for 72 hrs by MTT assay; format: toxicity, cell-based
# Plasmodium falciparum [8] = experiment: (§1) Antiplasmodial activity against sorbitol-synchronized ring stage MMV848 resistant Plasmodium falciparum 3D7 infected in erythrocytes measured after 48 hrs by SYBR green dye based fluorescence analysis; format: functional, organism-based; details: 3D7, Erythrocyte
# Plasmodium falciparum [9] = experiment: (§2) Resistance index, ratio of IC50 for antiplasmodial activity against sorbitol-synchronized ring stage 2-(1,1-difluoroethyl)-5-methyl-N-(4-(pentafluoro-l6-sulfaneyl)phenyl)-[1,2,4]triazolo[1,5-a]pyrimidin-7-amine resistant Plasmodium falciparum Dd2 infected in erythrocytes to IC50 for antiplasmodial activity against sorbitol-synchronized ring stage chloroquine sensitive Plasmodium falciparum 3D7 infected in erythrocytes; format: functional
# Plasmodium falciparum [10] = experiment: Antiplasmodial activity against Plasmodium falciparum infected in erythrocytes assessed as induction of parasite death by measuring appearance of multiple pyknotic nuclei at 10 uM measured after 24 to 72 hrs; format: functional, organism-based; details: Erythrocyte, time 24-72 hrs
# Plasmodium falciparum [11] = experiment: Antiplasmodial activity against GFP expressing sorbitol-synchronized ring stage laboratory adapted Plasmodium falciparum 3D7HT assessed as reduction in infectivity by measuring inhibition of gametocyte formation at 10 uM treated for 72 hrs followed by replacement with fresh media without compound for 24 hrs and measured on day 4 by giemsa staining based microscopic analysis; format: functional
# Plasmodium falciparum [12] = experiment: (§3) Antiplasmodial activity against sorbitol-synchronized ring stage atovaquone resistant Plasmodium falciparum TM90C6B harboring Y268S mutation in CYTB gene, Y184F mutation in MDR1 gene, N51I/C59R/S108N mutation in DHFR gene and S436F/A437G/A581G mutation in DHPS gene infected in erythrocytes measured after 48 hrs by SYBR green dye based fluorescence analysis; format: functional, organism-based; details: Erythrocyte
# Plasmodium falciparum [13] = experiment: as §3, with “chloroquine, mefloquine and pyrimethamine” for “atovaquone”, “Dd2” for “TM90C6B”, “N86F/M74I/ N75E/[…]” for “Y268S mutation in CYTB gene, Y184F”, “S436F/A437G/A613S” for “S436F/A437G/A581G”; format: functional, organism-based; details: Dd2, Erythrocyte
# Plasmodium falciparum [14] = experiment: Potency index, ratio of chloroquine IC50 to test compound IC50 for antiplasmodial activity against sorbitol-synchronized ring stage chloroquine resistant Plasmodium falciparum K1 infected in erythrocytes measured after 48 hrs by SYBR green dye based fluorescence analysis; format: functional, Erythrocyte
# Plasmodium falciparum [15] = experiment: (§4) Resistance index, ratio of IC50 for antiplasmodial activity against sorbitol-synchronized ring stage atovaquone resistant Plasmodium falciparum TM90C6B harboring Y268S mutation in CYTB gene, Y184F mutation in MDR1 gene, N51I/C59R/S108N mutation in DHFR gene and S436F/A437G/A581G mutation in DHPS gene infected in erythrocytes to IC50 for antiplasmodial activity against sorbitol-synchronized ring stage chloroquine sensitive Plasmodium falciparum 3D7 infected in erythrocytes; format: functional
# Plasmodium falciparum [16] = experiment: as §4, with “chloroquine, mefloquine and pyrimethamine” for “atovaquone”, “Dd2” for “TM90C6B”, “N86F/M74I/ N75E/[…]” for “Y268S mutation in CYTB gene, Y184F”, “S436F/A437G/A613S” for “S436F/A437G/A581G”; format: functional
# Plasmodium falciparum [17] = experiment: Antiplasmodial activity against sorbitol-synchronized ring stage chloroquine resistant Plasmodium falciparum K1 infected in erythrocytes measured after 48 hrs by SYBR green dye based fluorescence analysis; format: functional, organism-based; details: K1, Erythrocyte
# Plasmodium falciparum [18] = experiment: as §1, with “2-(1,1-difluoroethyl)-5-methyl-N-(4-(pentafluoro-l6-sulfaneyl)phenyl)-[1,2,4]triazolo[1,5-a]pyrimidin-7-amine” for “MMV848”, “Dd2” for “3D7”; format: functional, organism-based; details: Dd2, Erythrocyte
# Plasmodium falciparum [19] = experiment: as §2, with “chloroquine” for “2-(1,1-difluoroethyl)-5-methyl-N-(4-(pentafluoro-l6-sulfaneyl)phenyl)-[1,2,4]triazolo[1,5-a]pyrimidin-7-amine”, “K1” for “Dd2”; format: functional
# Plasmodium falciparum [20] = experiment: Antiplasmodial activity against Plasmodium falciparum infected in erythrocytes assessed as reduction in parasite growth at 10 uM measured within 24 hrs; format: functional, organism-based; details: Erythrocyte
# Plasmodium falciparum [21] = experiment: as §2, with “MMV848” for “2-(1,1-difluoroethyl)-5-methyl-N-(4-(pentafluoro-l6-sulfaneyl)phenyl)-[1,2,4]triazolo[1,5-a]pyrimidin-7-amine”, “3D7” for “Dd2”; format: functional
# [22] = biological target: T2, Dihydroorotate dehydrogenase (quinone), mitochondrial (Plasmodium falciparum (isolate 3D7), UniProt Q08210); experiment: Inhibition of Plasmodium falciparum DHODH
# T2 sequence (Q08210 whole entry): T1 sequence (whole entry)
# Plasmodium falciparum [23] = experiment: Potency index, ratio of chloroquine IC50 to test compound IC50 for antiplasmodial activity chloroquine-resistant against Plasmodium falciparum W2 by anti-[…] incorporation assay; format: functional
# Plasmodium falciparum [24] = experiment: Antiplasmodial activity against Plasmodium falciparum infected in erythrocytes assessed as reduction in parasite growth at 500 nM measured until 24 hrs; format: functional, organism-based; details: Erythrocyte
# [25] = biological target: T2, Dihydroorotate dehydrogenase (quinone), mitochondrial; experiment: Inhibition of Plasmodium falciparum DHODH measured over 60 secs by DCIP dye based colorimetric assay
# Plasmodium falciparum [26] = experiment: Antiplasmodial activity against Plasmodium falciparum 3D7; format: functional, organism-based
SMILES,inhibition [1] [%],Activity [2] [%],IC50 (Plasmodium falciparum [3]) [nM],Percent inhibition of ookinete formation at 10 µM (Plasmodium berghei) [%],selectivity ratio [6],CC50 at 72 h [7] [nM],inhibition at 10 µM (Plasmodium falciparum [11]) [%],IC50 (Plasmodium falciparum [17]) [nM],further results
Cc1cc(N2CCN(c3ccnc4cc(Cl)ccc34)CC2)n2nc(C)nc2n1,< 50,93,> 10000,–,–,–,–,–,–
C[C@H]1[C@H](OC(=O)CCC(=O)O)O[C@@H]2O[C@@]3(C)CC[C@H]4[C@H](C)CC[C@@H]1[C@@]24OO3 [ARTESUNATE],–,–,–,–,–,–,–,–,Activity (Plasmodium falciparum [4]): Active; Ratio IC50 [5]: 1.04
Cc1cc(NCCCCNc2ccnc3cc(Cl)ccc23)n2nc(C)cc2n1,< 50,89.4,–,22,> 1570,> 100000,–,–,–
Cc1cc(NCCCCCCCNc2ccnc3cc(Cl)ccc23)n2nc(C)cc2n1,< 50,89.4,46,43,211,9700,66.5,71,IC50 (Plasmodium falciparum [8]): 20 nM; Ratio IC50 (Plasmodium falciparum [9]): 1; Activity (Plasmodium falciparum [10]): Active; IC50 (Plasmodium falciparum [12]): 40 nM; IC50 (Plasmodium falciparum [13]): 38 nM; Ratio IC50 (Plasmodium falciparum [14]): 3; Ratio IC50 (Plasmodium falciparum [15]): 0.9; Ratio IC50 (Plasmodium falciparum [16]): 0.8; IC50 (Plasmodium falciparum [18]): 50 nM; Ratio IC50 [5]: 0.8; Ratio IC50 (Plasmodium falciparum [19]): 1.5; Activity (Plasmodium falciparum [20]): Active; Ratio IC50 (Plasmodium falciparum [21]): 0.4
CCN(CC)CCCC(C)Nc1ccnc2cc(Cl)ccc12 (stereo not drawn) [CHLOROQUINE],–,–,–,–,–,398000,–,–,–
Cc1cc(NCCCCCCCNc2ccnc3cc(Cl)ccc23)n2ncnc2n1,< 50,73.5,110,30,146,16000,2,300,IC50 (Plasmodium falciparum [8]): 120 nM; Ratio IC50 (Plasmodium falciparum [9]): 2.1; IC50 (Plasmodium falciparum [12]): 200 nM; IC50 (Plasmodium falciparum [13]): 320 nM; Ratio IC50 (Plasmodium falciparum [15]): 2.2; Ratio IC50 (Plasmodium falciparum [16]): 2.9; IC50 (Plasmodium falciparum [18]): 230 nM; Ratio IC50 (Plasmodium falciparum [21]): 1.1
Cc1cc(NCCCCNc2ccnc3cc(Cl)ccc23)n2nc(C)nc2n1,< 50,92,–,0,> 100,> 25000,–,–,–
Cc1cc(N2CCN(c3ccnc4cc(Cl)ccc34)CC2)n2nc(C)cc2n1,< 50,108,4400,–,–,–,–,–,–
Cc1cc(N2CCN(c3ccnc4cc(Cl)ccc34)CC2)n2nc(C(F)(F)F)nc2n1,< 50,105,7000,–,–,–,–,–,–
Cc1cc(Nc2ccc3ccccc3c2)n2nc(C(F)(F)F)nc2n1,–,–,–,–,–,–,–,–,IC50 [22]: 700 nM; Ratio IC50 (Plasmodium falciparum [23]): 10
COc1cc(NC(C)CCCN)c2ncccc2c1 (stereo not drawn) [PRIMAQUINE],–,–,–,–,–,–,86,–,–
CCc1nc(N)nc(N)c1-c1ccc(Cl)cc1 [PYRIMETHAMINE],–,–,–,–,–,–,–,–,Activity (Plasmodium falciparum [24]): inactive; Ratio IC50 [5]: 3
Cc1cc(NCCCNc2ccnc3cc(Cl)ccc23)n2nc(C)nc2n1,< 50,97,840,23,131,110000,50,640,Ratio IC50 (Plasmodium falciparum [19]): 0.8
Cc1cc(NCCCNc2ccnc3cc(Cl)ccc23)n2nc(C(F)(F)F)nc2n1,< 50,51.5,673,–,168,113000,–,3000,Ratio IC50 (Plasmodium falciparum [19]): 4.5
O=C1C(O)=C([C@H]2CC[C@H](c3ccc(Cl)cc3)CC2)C(=O)c2ccccc21 [ATOVAQUONE],–,–,1,78,–,–,–,–,IC50 (Plasmodium falciparum [12]): > 1000 nM
Cc1cc(NCCCCCCCNc2ccnc3cc(Cl)ccc23)n2nc(C(F)(F)F)nc2n1,84,16.4,400,20,33,13000,69,–,IC50 (Plasmodium falciparum [13]): 330 nM; Ratio IC50 (Plasmodium falciparum [16]): 0.8; IC50 [25]: 4800 nM
Cc1cc(NCCCCNc2ccnc3cc(Cl)ccc23)n2nc(C(F)(F)F)nc2n1,< 50,80.8,310,42,> 81,> 25000,43,300,Ratio IC50 (Plasmodium falciparum [19]): 1
Cc1cc(NCCCCCCCNc2ccnc3cc(Cl)ccc23)n2nc(C)nc2n1,< 50,78.8,120,0,142,17000,85.8,210,IC50 (Plasmodium falciparum [8]): 50 nM; Ratio IC50 (Plasmodium falciparum [9]): 1.3; IC50 (Plasmodium falciparum [12]): 180 nM; IC50 (Plasmodium falciparum [13]): 170 nM; Ratio IC50 (Plasmodium falciparum [15]): 1.5; Ratio IC50 (Plasmodium falciparum [16]): 1.4; IC50 (Plasmodium falciparum [18]): 150 nM; Ratio IC50 (Plasmodium falciparum [21]): 0.4
Cc1cc(Nc2ccc(S(F)(F)(F)(F)F)cc2)n2nc(C(C)(F)F)nc2n1 [DSM-265],–,< 10,4,–,–,–,–,–,Ratio IC50 (Plasmodium falciparum [9]): 3; IC50 (Plasmodium falciparum [18]): 12 nM
Clc1ccc2c(N3CCN(CCCN4CCN(c5ccnc6cc(Cl)ccc56)CC4)CC3)ccnc2c1 [PIPERAQUINE],–,–,–,–,–,–,–,–,IC50 (Plasmodium falciparum [26]): 60 nM
